Source: patent US20250042890A1, “METHIONINE ADENOSYLTRANSFERASE 2a (MAT2A) INHIBITORS AND USES THEREOF” (Insilico Medicine IP Limited, priority 2021, published 2025)

What follows are molecules tested against MAT2A (Homo sapiens (Human), UniProt P31153) (assay: MAT2A Biochemical Assay). Conditions: Biomol Green readout O.D.620; 1 uM start, 3-fold dilution, 10 doses; read-out: MAT2A enzymatic IC50.
Sequence of MAT2A (P31153 whole entry, species assumed): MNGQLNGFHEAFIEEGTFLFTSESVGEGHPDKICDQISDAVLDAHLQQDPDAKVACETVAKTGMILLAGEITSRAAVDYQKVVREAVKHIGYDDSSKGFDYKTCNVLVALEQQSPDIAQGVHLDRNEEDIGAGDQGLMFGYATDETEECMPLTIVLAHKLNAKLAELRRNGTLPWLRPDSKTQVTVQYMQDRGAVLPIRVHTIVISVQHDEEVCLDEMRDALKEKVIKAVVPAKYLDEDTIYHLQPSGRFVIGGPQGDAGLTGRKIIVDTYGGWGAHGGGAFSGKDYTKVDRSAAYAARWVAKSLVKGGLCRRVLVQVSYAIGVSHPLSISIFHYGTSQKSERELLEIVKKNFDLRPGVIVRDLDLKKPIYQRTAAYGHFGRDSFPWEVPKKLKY
Protocol: Example A: MAT2A Biochemical Assay
Compounds described herein were tested as follows:
• (1). Prepared 1×Assay buffer. • (2). Preparation of compound concentration gradient: the compounds test condition were 1 uM start, 3-fold dilution, 10 doses, singlet or duplicate. 100× concentration compounds were prepared in 384-well plate. Then used Echo 550 to transfer 250 nl to a 384-reaction plate for later use. Added 250 nl of 100% DMSO to the negative and positive control wells. • (3). Prepared 1.67× final concentration enzyme solution with 1×Assay buffer. • (4). Added 15 μl of 1.67× Enzyme solution to the compound wells and positive control wells; added 15 μl of 1 Assay buffer to the negative control wells. • (5). Centrifuged at 1000 rpm for 30 seconds and incubate for 15 minutes. • (6). Prepared 2.5× final concentration Substrate mix solution with 1×Assay buffer. • (7). Added 10 μl of 2.5× final concentration Substrate mix solution to start the reaction. • (8). Centrifuged at 1000 rpm for 30 seconds and incubate for 150 minutes. • (9). Added 50 μl Biomol Green to stop the reaction, centrifuge at 1000 rpm for 30 seconds and incubate for 15 minutes. read O.D.620, process data.
• (1) Using GraphPad Prism 5. • (2) % Inh=(Max signal−Compound signal)/(Max signal−Min signal)*100. • (3) Max signal was obtained from the positive control wells. • (4) Min signal was obtained from the negative control wells.
`C#CCNc1nc(=O)n(-c2cccnc2)c2cc(Cl)ccc12` [Example 1, 7-chloro-4-(prop-2-yn-1-ylamino)-1-(pyridin-3-yl)quinazolin-2 (1H)-one] gave an IC50 of less than 50 nM.
With `O=c1nc(NCC#CC2CC2)c2ccc(Cl)cc2n1-c1cccnc1` [Example 2, 7-chloro-4-((3-cyclopropylprop-2-yn-1-yl)amino)-1-(pyridin-3-yl)quinazolin-2 (1H)-one] the IC50 was less than 50 nM.
`C#CC1(Nc2nc(=O)n(-c3cccnc3)c3cc(Cl)ccc23)CC1` [Example 4] was tested, and the IC50 was less than 50 nM.
`C=CCNc1nc(=O)n(-c2cccnc2)c2cc(Cl)ccc12` [Example 5, 4-(allylamino)-7-chloro-1-(pyridin-3-yl)quinazolin-2 (1H)-one] gave an IC50 of less than 50 nM.
In the case of `C#CCCCNc1nc(=O)n(-c2cccnc2)c2cc(Cl)ccc12` [Example 6, 7-chloro-4-(pent-4-yn-1-ylamino)-1-(pyridin-3-yl)quinazolin-2 (1H)-one], the IC50 is reported as less than 50 nM.
Work on `C#CCNc1nc(=O)n(-c2cccnc2)c2cc(C(F)(F)F)ccc12` [Example 7, 4-(prop-2-yn-1-ylamino)-1-(pyridin-3-yl)-7-(trifluoromethyl)quinazolin-2 (1H)-one] yielded an IC50 of less than 50 nM.
`C#CCCNc1nc(=O)n(-c2ccccc2Cl)c2cc(Cl)ccc12` [Example 8, 4-(but-3-yn-1-ylamino)-7-chloro-1-(2-chlorophenyl)quinazolin-2 (1H)-one] gave an IC50 of less than 50 nM.
Molecule `C#CCNc1nc(=O)n(-c2ccccc2Cl)c2cc(Cl)ccc12` [Example 10, 7-chloro-1-(2-chlorophenyl)-4-(prop-2-yn-1-ylamino)quinazolin-2 (1H)-one] has an IC50 of less than 50 nM.
`C#CC1CCN(c2nc(=O)n(-c3ccccc3Cl)c3cc(Cl)ccc23)CC1` [Example 13, 7-chloro-1-(2-chlorophenyl)-4-(4-ethynylpiperidin-1-yl)quinazolin-2 (1H)-one] showed an IC50 greater than 1000 nM.
`O=c1nc(NCC#CCN2CCOCC2)c2ccc(C(F)(F)F)cc2n1-c1cccnc1` [Example 14, 4-((4-morpholinobut-2-yn-1-yl)amino)-1-(pyridin-3-yl)-7-(trifluoromethyl)quinazolin-2 (1H)-one] was tested, and the IC50 was less than 50 nM.
Molecule `C#CCNc1nc(=O)n(-c2cccnc2C)c2cc(Cl)ccc12` [Example 15, 7-chloro-1-(2-methylpyridin-3-yl)-4-(prop-2-yn-1-ylamino)quinazolin-2 (1H1)-one] has an IC50 of less than 50 nM.
`C#CC1(Nc2nc(=O)n(-c3cccnc3C)c3cc(Cl)ccc23)CC1` [Example 16, 7-chloro-4-((1-ethynylcyclopropyl)amino)-1-(2-methylpyridin-3-yl)quinazolin-2 (1H)-one] was tested, and the IC50 was less than 50 nM.
`C#CCNc1nc(=O)n(-c2cnccn2)c2cc(Cl)ccc12` [Example 17, 7-chloro-4-(prop-2-yn-1-ylamino)-1-(pyrazin-2-yl)quinazolin-2 (1H)-one] was tested, and the IC50 was less than 50 nM.
In the case of `C#CCNc1nc(=O)n(-c2cccnc2)c2cc(Br)ccc12` [Example 18, 7-bromo-4-(prop-2-yn-1-ylamino)-1-(pyridin-3-yl)quinazolin-2 (1H)-one], the IC50 is reported as less than 50 nM.
For `C#CCNc1nc(=O)n(-c2cccnc2C)c2cc(Br)cc(OC)c12` [Example 19, 7-bromo-5-methoxy-1-(2-methylpyridin-3-yl)-4-(prop-2-yn-1-ylamino)quinazolin-2 (1H)-one], the IC50 was less than 50 nM.
`C#CCNc1nc(=O)n(-c2cccnc2)c2cc(Cl)cc(OC)c12` [Example 20, 7-chloro-5-methoxy-4-(prop-2-yn-1-ylamino)-1-(pyridin-3-yl)quinazolin-2 (1H)-one] was tested, and the IC50 was less than 50 nM.
`C#CCNc1nc(=O)n(-c2cnccn2)c2cc(Cl)cc(OC)c12` [Example 21, 7-chloro-5-methoxy-4-(prop-2-yn-1-ylamino)-1-(pyrazin-2-yl)quinazolin-2 (1H)-one] showed an IC50 of less than 50 nM.
In the case of `C#CCNc1nc(=O)n(-c2cccnc2C)c2cc(Cl)cc(OC)c12` [Example 22, 7-chloro-5-methoxy-1-(2-methylpyridin-3-yl)-4-(prop-2-yn-1-ylamino)quinazolin-2 (1H)-one], the IC50 is reported as less than 50 nM.
`C#CCNc1nc(=O)n(-c2nccnc2C)c2cc(Cl)cc(OC)c12` [Example 23, 7-chloro-5-methoxy-1-(3-methylpyrazin-2-yl)-4-(prop-2-yn-1-ylamino)quinazolin-2 (1H)-one] gave an IC50 of less than 50 nM.
Molecule `C#CC1(Nc2nc(=O)n(-c3cnccn3)c3cc(Cl)cc(OC)c23)CC1` [Example 24, 7-chloro-4-((1-ethynylcyclopropyl)amino)-5-methoxy-1-(pyrazin-2-yl)quinazolin-2 (1H)-one] has an IC50 of less than 50 nM.
`C#CC1(Nc2nc(=O)n(-c3nccnc3C)c3cc(Cl)cc(OC)c23)CC1` [Example 25, 7-chloro-4-((1-ethynylcyclopropyl)amino)-5-methoxy-1-(3-methylpyrazin-2-yl)quinazolin-2 (1H)-one] was tested, and the IC50 was less than 50 nM.
`C#CC(C)Nc1nc(=O)n(-c2cccnc2C)c2cc(Cl)cc(OC)c12` (stereo not shown) [Example 26] was tested, and the IC50 was less than 50 nM.
`C#CC1(Nc2nc(=O)n(-c3cccnc3C)c3cc(Cl)cc(OC)c23)CC1` [Example 27, 7-chloro-4-((1-ethynylcyclopropyl)amino)-5-methoxy-1-(2-methylpyridin-3-yl)quinazolin-2 (11H)-one] gave an IC50 of less than 50 nM.
`C#CC1(Nc2nc(=O)n(-c3cccnc3C)c3cc(Cl)cc(OC)c23)CCC1` [Example 28] gave an IC50 of less than 50 nM.
`C#CCNc1nc(=O)n(-c2cccnc2)c2cc(Cl)cc(F)c12` [Example 29, 7-chloro-5-fluoro-4-(prop-2-yn-1-ylamino)-1-(pyridin-3-yl)quinazolin-2 (1H)-one] gave an IC50 of less than 50 nM.
`C#CCNc1nc(=O)n(-c2cccnc2C)c2cc(Cl)cc(F)c12` [Example 30, 7-chloro-5-fluoro-1-(2-methylpyridin-3-yl)-4-(prop-2-yn-1-ylamino)quinazolin-2 (1H)-one] gave an IC50 of less than 50 nM.
Work on `C#CC1(Nc2nc(=O)n(-c3cccnc3C)c3cc(Cl)cc(F)c23)CC1` [Example 31, 7-chloro-4-((1-ethynylcyclopropyl)amino)-5-fluoro-1-(2-methylpyridin-3-yl)quinazolin-2 (11H)-one] yielded an IC50 of less than 50 nM.
With `C#CCNc1nc(=O)n(-c2cccnc2C)c2cc(C(F)(F)F)ccc12` [Example 33, 1-(2-methylpyridin-3-yl)-4-(prop-2-yn-1-ylamino)-7-(trifluoromethyl)quinazolin-2 (1H)-one] the IC50 was less than 50 nM.
For `C#CCNc1nc(=O)n(-c2cccnc2)c2cc(C(F)(F)F)cc(OC)c12` [Example 34, 5-methoxy-4-(prop-2-yn-1-ylamino)-1-(pyridin-3-yl)-7-(trifluoromethyl)quinazolin-2 (1H)-one], the IC50 was less than 50 nM.
`C#CC(C)Nc1nc(=O)n(-c2cccnc2)c2cc(C(F)(F)F)cc(OC)c12` (stereo not shown) [Example 35, 4-(but-3-yn-2-ylamino)-5-methoxy-1-(pyridin-3-yl)-7-(trifluoromethyl)quinazolin-2 (1H)-one] was tested, and the IC50 was less than 50 nM.
For `C#CCNc1nc(=O)n(-c2cccnc2C)c2cc(C(F)(F)F)cc(OC)c12` [Example 36, 5-methoxy-1-(2-methylpyridin-3-yl)-4-(prop-2-yn-1-ylamino)-7-(trifluoromethyl)quinazolin-2 (1H)-one], the IC50 was less than 50 nM.
`C#CC(C)Nc1nc(=O)n(-c2cccnc2C)c2cc(C(F)(F)F)cc(OC)c12` (stereo not shown) [Example 37] was tested, and the IC50 was less than 50 nM.
With `C#CCNc1nc(=O)n(-c2cccnc2)c2cc(C(F)(F)F)cc(OCF)c12` [Example 38, 5-(fluoromethoxy)-4-(prop-2-yn-1-ylamino)-1-(pyridin-3-yl)-7-(trifluoromethyl)quinazolin-2 (1H)-one] the IC50 was less than 50 nM.
Molecule `C#CCNc1nc(=O)n(-c2cccnc2C)c2cc(C(F)(F)F)cc(OC(F)F)c12` [Example 40, 5-(difluoromethoxy)-1-(2-methylpyridin-3-yl)-4-(prop-2-yn-1-ylamino)-7-(trifluoromethyl)quinazolin-2 (1l)-one] has an IC50 of less than 50 nM.
`C#CCNc1nc(=O)n(-c2cccnc2C)c2nc(C(F)(F)F)cc(OC)c12` [Example 42, 5-methoxy-1-(2-methylpyridin-3-yl)-4-(prop-2-yn-1-ylamino)-7-(trifluoromethyl)pyrido[2,3-d]pyrimidin-2 (1H)-one] was tested, and the IC50 was less than 50 nM.
`C#CCNc1nc(=O)n(-c2cccnc2C(C)C)c2cc(C(F)(F)F)ccc12` [Example 45, 1-(2-isopropylpyridin-3-yl)-4-(prop-2-yn-1-ylamino)-7-(trifluoromethyl)quinazolin-2 (1H)-one] was tested, and the IC50 was less than 50 nM.
`C#CC1(Nc2nc(=O)n(-c3cccnc3C)c3cc(C(F)(F)F)ccc23)CC1` [Example 46, 4-((1-ethynylcyclopropyl)amino)-1-(2-methylpyridin-3-yl)-7-(trifluoromethyl)quinazolin-2 (1H)-one] was tested, and the IC50 was less than 50 nM.
`C#CC1(Nc2nc(=O)n(-c3cccnc3)c3cc(C(F)(F)F)cc(OC)c23)CC1` [Example 47, 4-((1-ethynylcyclopropyl)amino)-5-methoxy-1-(pyridin-3-yl)-7-(trifluoromethyl)quinazolin-2 (1B)-one] showed an IC50 of less than 50 nM.
`C#CCNc1nc(=O)n(-c2nccnc2C)c2cc(C(F)(F)F)cc(OC)c12` [Example 48, 5-methoxy-1-(3-methylpyrazin-2-yl)-4-(prop-2-yn-1-ylamino)-7-(trifluoromethyl)quinazolin-2 (1H)-one] showed an IC50 of less than 50 nM.
Molecule `C#CC1(Nc2nc(=O)n(-c3cccnc3C)c3cc(C(F)(F)F)cc(OC)c23)CC1` [Example 49] has an IC50 of less than 50 nM.
